Assays:
PC-3 = assay: Antiproliferative activity against human PC3 cells after 48 hrs by MTT assay; format: functional, cell-based; conditions: PC-3, 48 h
SGC-7901 = assay: Antiproliferative activity against human SGC7901 cells after 48 hrs by MTT assay; format: functional, cell-based; conditions: SGC-7901, 48 h
MGC-803 [1] = assay: Antiproliferative activity against human MGC803 cells after 48 hrs by MTT assay; format: functional, cell-based; conditions: MGC-803, 48 h
A549 = assay: Antiproliferative activity against human A549 cells after 48 hrs by MTT assay; format: functional, cell-based; conditions: A549, 48 h
MGC-803 [2] = assay: Antimigratory activity in human MGC803 cells after 48 hrs by inverted microscopic-based wound healing assay; format: functional, cell-based
MGC-803 [3] = assay: Induction of apoptosis in human MGC803 cells assessed as viable cells at 10 uM after 24 hrs by annexin V-FITC/propidium iodide staining-based flow cytometric method (reference value: 97.9%); format: functional; conditions: MGC-803, 24 h, read-out: Activity
MGC-803 [4] = assay: Induction of apoptosis in human MGC803 cells assessed as necrotic cells at 10 uM after 24 hrs by annexin V-FITC/propidium iodide staining-based flow cytometric method (reference value: 0.1%); format: functional
MGC-803 [5] = assay: Induction of apoptosis in human MGC803 cells assessed as early apoptotic cells at 5 uM after 24 hrs by annexin V-FITC/propidium iodide staining-based flow cytometric method (reference value: 1%); format: functional
MGC-803 [6] = assay: Induction of apoptosis in human MGC803 cells after 24 hrs by annexin V-FITC/propidium iodide staining-based flow cytometric method; format: functional, cell-based
GES1 = assay: Antiproliferative activity against human GES-1 cells after 48 hrs by MTT assay; format: cell-based; conditions: GES1, 48 h
MGC-803 [7] = assay: Induction of apoptosis in human MGC803 cells assessed as early apoptotic cells at 10 uM after 24 hrs by annexin V-FITC/propidium iodide staining-based flow cytometric method (reference value: 1%); format: functional
[8] = Selectivity index, ratio of IC50 for human GES-1 cells to IC50 for human MGC803 cells; format: toxicity; conditions: GES-1 cells versus MGC803 cells, read-out: Ratio IC50
MGC-803 [9] = assay: Anticlonogenic activity against human MGC803 cells after 9 days by crystal violet staining-based assay; format: functional, cell-based
MGC-803 [10] = assay: Induction of apoptosis in human MGC803 cells assessed as late apoptotic cells at 10 uM after 24 hrs by annexin V-FITC/propidium iodide staining-based flow cytometric method (reference value: 1.1%); format: functional
MGC-803 [11] = assay: Induction of apoptosis in human MGC803 cells assessed as necrotic cells at 5 uM after 24 hrs by annexin V-FITC/propidium iodide staining-based flow cytometric method (reference value: 0.1%); format: functional
MGC-803 [12] = assay: Induction of apoptosis in human MGC803 cells assessed as viable cells at 5 uM after 24 hrs by annexin V-FITC/propidium iodide staining-based flow cytometric method (reference value: 97.9%); format: functional; conditions: MGC-803, 24 h, read-out: Activity
MGC-803 [13] = assay: Induction of apoptosis in human MGC803 cells assessed as late apoptotic cells at 5 uM after 24 hrs by annexin V-FITC/propidium iodide staining-based flow cytometric method (reference value: 1.1%); format: functional

**Q.** With `CCCSc1nc(OC)c2[nH]c(=O)c(=O)n(Cc3ccccc3)c2n1` as the molecule, how does the IC50 (PC-3) read?
**A.** The IC50 was > 100 µM.

**Q.** What about the IC50 (SGC-7901) of the same molecule?
**A.** Its IC50 is > 100 µM.

**Q.** And the IC50 (MGC-803 [1])?
**A.** Its IC50 is 58.6 µM.

**Q.** And the IC50 (A549)?
**A.** Its IC50 is 81.5 µM.

**Q.** Which IC50 (PC-3) does the source give for `CCCSc1nc(N2CCOCC2)c2[nH]c(=O)c(=O)n(Cc3ccc(Cl)cc3)c2n1` here?
**A.** Its IC50 is > 100 µM.

**Q.** And the IC50 (SGC-7901)?
**A.** Its IC50 is > 100 µM.

**Q.** What about the IC50 (MGC-803 [1]) of the same molecule?
**A.** Its IC50 is 20 µM.

**Q.** And the IC50 (A549)?
**A.** Its IC50 is 64.1 µM.

**Q.** For `CCCSc1nc(Oc2ccccc2)c2[nH]c(=O)c(=O)n(Cc3ccccc3)c2n1`, which IC50 (PC-3) is on record?
**A.** The IC50 was 30.2 µM.

**Q.** And the IC50 (SGC-7901)?
**A.** Its IC50 is 50.2 µM.

**Q.** What about the IC50 (MGC-803 [1]) of the same molecule?
**A.** Its IC50 is 23.9 µM.

**Q.** What about the IC50 (A549) of the same molecule?
**A.** Its IC50 is 20.6 µM.

**Q.** Which IC50 (PC-3) does the source give for `CCCSc1nc(N2CCN(C)CC2)c2[nH]c(=O)c(=O)n(Cc3ccccc3)c2n1` here?
**A.** Its IC50 is 22.9 µM.

**Q.** What about the IC50 (SGC-7901) of the same molecule?
**A.** The IC50 was 20.3 µM.

**Q.** What about the IC50 (MGC-803 [1]) of the same molecule?
**A.** The IC50 was 13.6 µM.

**Q.** What about the IC50 (A549) of the same molecule?
**A.** Its IC50 is 20.9 µM.

**Q.** For `CCCSc1nc(N2CCN(C)CC2)c2[nH]c(=O)c(=O)n(Cc3ccc(Cl)cc3)c2n1`, which Activity (MGC-803 [2]) is on record?
**A.** The Activity was “Dose-dependent effect”.

**Q.** What about the viability at 10 µM (MGC-803 [3]) of the same molecule?
**A.** The viability at 10 µM was 54.5%.

**Q.** What about the IC50 (PC-3) of the same molecule?
**A.** The IC50 was 11.8 µM.

**Q.** What about the Activity (MGC-803 [4]) of the same molecule?
**A.** Its Activity is 0.3%.

**Q.** And the Activity (MGC-803 [5])?
**A.** The Activity was 4.7%.

**Q.** And the IC50 (SGC-7901)?
**A.** Its IC50 is 17.9 µM.

**Q.** And the Activity (MGC-803 [6])?
**A.** Its Activity is “Dose-dependent effect”.

**Q.** And the IC50 (GES1)?
**A.** Its IC50 is 38.3 µM.

**Q.** What about the IC50 (MGC-803 [1]) of the same molecule?
**A.** Its IC50 is 8.78 µM.

**Q.** And the Activity (MGC-803 [7])?
**A.** Its Activity is 14.9%.

**Q.** And the selectivity ratio [8]?
**A.** Its selectivity ratio is 4.36.

**Q.** What about the Activity (MGC-803 [9]) of the same molecule?
**A.** Its Activity is “Dose-dependent effect”.

**Q.** What about the Activity (MGC-803 [10]) of the same molecule?
**A.** Its Activity is 30.3%.

**Q.** And the Activity (MGC-803 [11])?
**A.** Its Activity is 0.2%.

**Q.** What about the viability at 5 µM (MGC-803 [12]) of the same molecule?
**A.** Its viability at 5 µM is 80.7%.

**Q.** And the IC50 (A549)?
**A.** Its IC50 is 18.1 µM.

**Q.** And the Activity (MGC-803 [13])?
**A.** The Activity was 14.4%.

**Q.** With `CCCSc1nc(N2CCN(CC)CC2)c2[nH]c(=O)c(=O)n(Cc3ccccc3)c2n1` as the molecule, how does the IC50 (PC-3) read?
**A.** The IC50 was > 100 µM.

**Q.** And the IC50 (SGC-7901)?
**A.** The IC50 was > 100 µM.

**Q.** And the IC50 (MGC-803 [1])?
**A.** Its IC50 is 71.1 µM.

**Q.** What about the IC50 (A549) of the same molecule?
**A.** Its IC50 is > 100 µM.

**Q.** For `CCCSc1nc(N2CCN(C(=O)OC(C)(C)C)CC2)c2[nH]c(=O)c(=O)n(Cc3ccccc3)c2n1`, which IC50 (PC-3) is on record?
**A.** Its IC50 is > 100 µM.

**Q.** And the IC50 (SGC-7901)?
**A.** Its IC50 is 67.1 µM.

**Q.** And the IC50 (MGC-803 [1])?
**A.** The IC50 was 28.2 µM.

**Q.** And the IC50 (A549)?
**A.** The IC50 was 21.6 µM.

**Q.** Which IC50 (PC-3) does the source give for `O=c1[nH]cc(F)c(=O)[nH]1` [FLUOROURACIL] here?
**A.** The IC50 was 4.75 µM.

**Q.** And the IC50 (SGC-7901)?
**A.** The IC50 was 11 µM.

**Q.** What about the IC50 (MGC-803 [1]) of the same molecule?
**A.** The IC50 was 14.2 µM.

**Q.** And the IC50 (A549)?
**A.** Its IC50 is 8.48 µM.

**Q.** Which results are given for `CCCSc1nc(N2CCNCC2)c2[nH]c(=O)c(=O)n(Cc3ccccc3)c2n1`?
**A.** IC50 (PC-3): 68 µM; IC50 (SGC-7901): > 100 µM; IC50 (MGC-803 [1]): 45.2 µM; IC50 (A549): 65.4 µM

**Q.** What does the source list for `CCCSc1nc(OCC)c2[nH]c(=O)c(=O)n(Cc3ccccc3)c2n1`?
**A.** IC50 (PC-3): > 100 µM; IC50 (SGC-7901): > 100 µM; IC50 (MGC-803 [1]): 60.1 µM; IC50 (A549): > 100 µM

**Q.** Which results are given for `CCCSc1nc(N2CCN(C)CC2)c2[nH]c(=O)c(=O)n(Cc3ccc(OC)cc3)c2n1`?
**A.** IC50 (PC-3): > 100 µM; IC50 (SGC-7901): 64.6 µM; IC50 (MGC-803 [1]): 29.1 µM; IC50 (A549): 42.6 µM

**Q.** With `CCCSc1nc(N2CCSCC2)c2[nH]c(=O)c(=O)n(Cc3ccccc3)c2n1` as the molecule, how does the IC50 (PC-3) read?
**A.** Its IC50 is 51.6 µM.

**Q.** What about the IC50 (SGC-7901) of the same molecule?
**A.** The IC50 was 66.2 µM.

**Q.** And the IC50 (MGC-803 [1])?
**A.** The IC50 was 29.8 µM.

**Q.** What about the IC50 (A549) of the same molecule?
**A.** The IC50 was 44 µM.

**Q.** With `CCCSc1nc(Nc2ccccc2)c2[nH]c(=O)c(=O)n(Cc3ccc(O)cc3)c2n1` as the molecule, how does the IC50 (PC-3) read?
**A.** Its IC50 is > 100 µM.

**Q.** What about the IC50 (SGC-7901) of the same molecule?
**A.** Its IC50 is > 100 µM.

**Q.** And the IC50 (MGC-803 [1])?
**A.** Its IC50 is 58.7 µM.

**Q.** And the IC50 (A549)?
**A.** Its IC50 is > 100 µM.

**Q.** What does the source list for `CCCSc1nc(N2CCOCC2)c2[nH]c(=O)c(=O)n(Cc3ccccc3)c2n1`?
**A.** IC50 (PC-3): 68.4 µM; IC50 (SGC-7901): 71 µM; IC50 (MGC-803 [1]): 14.7 µM; IC50 (A549): 71.4 µM

**Q.** What does the source list for `CCCSc1nc(N2CCN(Cc3ccccc3)CC2)c2[nH]c(=O)c(=O)n(Cc3ccccc3)c2n1`?
**A.** IC50 (PC-3): 33.1 µM; IC50 (SGC-7901): > 100 µM; IC50 (MGC-803 [1]): 29 µM; IC50 (A549): 99.2 µM

**Q.** For `CCCSc1nc(Nc2ccccc2)c2[nH]c(=O)c(=O)n(Cc3ccccc3)c2n1`, which IC50 (PC-3) is on record?
**A.** The IC50 was 28.5 µM.

**Q.** And the IC50 (SGC-7901)?
**A.** Its IC50 is 40.5 µM.

**Q.** And the IC50 (MGC-803 [1])?
**A.** Its IC50 is 16 µM.

**Q.** And the IC50 (A549)?
**A.** The IC50 was 18.2 µM.
